Where only a bound is given, the exact number is not on record here.

Usually IC50 stands for the midpoint of a concentration-inhibition curve.

The target of the test is c-kit (Homo sapiens, UniProt P10721). Put plainly: c-kit assays of Examples 40 and 41 (AlphaScreen kinase assays at 10 and 100 μM ATP, 33P-ATP filter assay, M-07e SCF-stimulated proliferation and phosphorylation). (In general: In Alpha technology, singlet oxygen from a donor bead excites a nearby acceptor bead.)
Sequence of c-kit (P10721 with tags, fused parts or gaps): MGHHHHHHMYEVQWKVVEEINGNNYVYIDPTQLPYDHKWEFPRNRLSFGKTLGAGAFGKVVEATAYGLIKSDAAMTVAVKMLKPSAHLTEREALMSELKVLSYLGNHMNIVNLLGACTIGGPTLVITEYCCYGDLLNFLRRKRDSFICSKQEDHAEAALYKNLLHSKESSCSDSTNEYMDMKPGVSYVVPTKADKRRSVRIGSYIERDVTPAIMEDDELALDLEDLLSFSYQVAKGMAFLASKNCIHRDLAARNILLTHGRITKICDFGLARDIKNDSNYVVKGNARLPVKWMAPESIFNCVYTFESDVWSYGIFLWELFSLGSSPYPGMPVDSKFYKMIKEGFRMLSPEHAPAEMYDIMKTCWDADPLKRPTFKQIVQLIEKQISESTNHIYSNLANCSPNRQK
As for `c1ccc(CNc2ccc(Cc3c[nH]c4ncccc34)cn2)cc1` [P-0001, benzyl-[5-(1H-pyrrolo[2,3-b]pyridin-3-ylmethyl)-pyridin-2-yl]-amine], the IC50 was < 1000 nM.

As for `O=C(c1ccc(NCc2ccccc2)nc1)c1c[nH]c2ncccc12` [P-0002, (6-Benzylamino-pyridin-3-yl)-(1H-pyrrolo[2,3-b]pyridin-3-yl)-methanone], the IC50 was < 1000 nM.

`COc1ccc(CNc2ccc(Cc3c[nH]c4ncccc34)cn2)cc1` [P-0004, (4-methoxy-benzyl)-[5-(1H-pyrrolo[2,3-b]pyridin-3-ylmethyl)-pyridin-2-yl]-amine]: the IC50 was < 1000 nM.

Take `c1csc(CNc2ccc(Cc3c[nH]c4ncccc34)cn2)c1` [P-0008, [5-(1H-pyrrolo[2,3-b]pyridin-3-ylmethyl)-pyridin-2-yl]-thiophen-2-ylmethyl-amine]: the IC50 was < 1000 nM.

For `COc1ccnc2[nH]cc(Cc3ccc(NCc4ccc(Cl)cc4)nc3)c12` [P-0010, [5-(4-Methoxy-1H-pyrrolo[2,3-b]pyridin-3-ylmethyl)-pyridin-2-yl]-(4-chloro-benzyl)-amine], the IC50 was < 1000 nM.

Regarding `COc1ccnc2[nH]cc(Cc3ccc(NCc4ccc(C(F)(F)F)cc4)nc3)c12` [P-0011, [5-(4-Methoxy-1H-pyrrolo[2,3-b]pyridin-3-ylmethyl)-pyridin-2-yl]-(4-trifluoromethyl-benzyl)-amine], the half-maximal inhibitory concentration (IC50) is < 1000 nM.

In the case of `Cc1nc(NCc2ccc(C(F)(F)F)cc2)ccc1Cc1c[nH]c2ncccc12` [P-0013, [6-Methyl-5-(1H-pyrrolo[2,3-b]pyridin-3-ylmethyl)-pyridin-2-yl]-(4-trifluoromethyl-benzyl)-amine], the concentration for half-maximal inhibition (IC50) is < 1000 nM.

For `Cc1nc(NCc2ccc(Cl)cc2)ccc1Cc1c[nH]c2ncccc12` [P-0014, (4-Chloro-benzyl)-[6-methyl-5-(1H-pyrrolo[2,3-b]pyridin-3-ylmethyl)-pyridin-2-yl]-amine], the IC50 was < 1000 nM.

For `O=C(c1ccc(NCc2ccc(F)cc2)nc1)c1c[nH]c2ncccc12` [P-0015, [6-(4-Fluoro-benzylamino)-pyridin-3-yl]-(1H-pyrrolo[2,3-b]pyridin-3-yl)-methanone], the IC50 was < 1000 nM.

In the case of `O=C(c1ccc(NCc2ccc(C(F)(F)F)cc2)nc1)c1c[nH]c2ncccc12` [P-0017, (1H-Pyrrolo[2,3-b]pyridin-3-yl)-[6-(4-trifluoromethyl-benzylamino)-pyridin-3-yl]-methanone], the concentration for half-maximal inhibition (IC50) was < 1000 nM.

With `O=C(c1ccc(NCc2cccs2)nc1)c1c[nH]c2ncccc12` [P-0018, (1H-Pyrrolo[2,3-b]pyridin-3-yl)-{6-[(thiophen-2-ylmethyl)-amino]-pyridin-3-yl}-methanone], the IC50 was < 1000 nM.

As to `COc1ccc(Cc2c[nH]c3nccc(-c4ccsc4)c23)cn1` [P-0022, 3-(6-Methoxy-pyridin-3-ylmethyl)-4-thiophen-3-yl-1H-pyrrolo[2,3-b]pyridine], the IC50 is < 1000 nM.

As for `O=C(c1ccc(Nc2cccc(O)c2)nc1)c1c[nH]c2ncccc12` [P-0027, [6-(3-Hydroxy-phenylamino)-pyridin-3-yl]-(1H-pyrrolo[2,3-b]pyridin-3-yl)-methanone], the IC50 was < 1000 nM.

On to `Clc1ccc(CNc2ccc(Cc3c[nH]c4ncc(Br)cc34)cn2)cc1` [P-0038, [5-(5-Bromo-1H-pyrrolo[2,3-b]pyridin-3-ylmethyl)-pyridin-2-yl]-(4-chloro-benzyl)-amine], for which the IC50 was < 1000 nM.

Consider `Clc1ccc(CNc2ccc(Cc3c[nH]c4ncccc34)nn2)cc1` [P-0092, (4-Chloro-benzyl)-[6-(1H-pyrrolo[2,3-b]pyridin-3-ylmethyl)-pyridazin-3-yl]-amine], for which the IC50 is < 1000 nM.

`c1cnc2[nH]cc(Cc3ccc(NCc4ccc(CN5CCOCC5)cc4)nc3)c2c1` [P-0093, (4-Morpholin-4-ylmethyl-benzyl)-[5-(1H-pyrrolo[2,3-b]pyridin-3-ylmethyl)-pyridin-2-yl]-amine]: the IC50 was < 1000 nM.

For `c1cncc(CNc2ccc(Cc3c[nH]c4ncccc34)cn2)c1` [P-0094, Pyridin-3-ylmethyl-[5-(1H-pyrrolo[2,3-b]pyridin-3-ylmethyl)-pyridin-2-yl]-amine], the IC50 is < 1000 nM.

Turning to `Cc1cc(CNc2ccc(Cc3c[nH]c4ncccc34)cn2)no1` [P-0095, (5-Methyl-isoxazol-3-ylmethyl)-[5-(1H-pyrrolo[2,3-b]pyridin-3-ylmethyl)-pyridin-2-yl]-amine], the IC50 is < 1000 nM.

As for `c1cnc2[nH]cc(Cc3ccc(NCCN4CCCC4)nc3)c2c1` [P-0096, (2-Pyrrolidin-1-yl-ethyl)-[5-(1H-pyrrolo[2,3-b]pyridin-3-ylmethyl)-pyridin-2-yl]-amine], the IC50 is < 1000 nM.

As for `CC(Nc1ccc(Cc2c[nH]c3ncccc23)cn1)c1ccc(S(C)(=O)=O)cc1` (centres unmarked) [P-0097, [1-(4-Methanesulfonyl-phenyl)-ethyl]-[5-(1H-pyrrolo[2,3-b]pyridin-3-ylmethyl)-pyridin-2-yl]-amine], the IC50 was < 1000 nM.

`COCCNc1ccc(Cc2c[nH]c3ncccc23)cn1` [P-0098, (2-Methoxy-ethyl)-[5-(1H-pyrrolo[2,3-b]pyridin-3-ylmethyl)-pyridin-2-yl]-amine]: the IC50 was < 1000 nM.

`c1cnc2[nH]cc(Cc3ccc(NCCN4CCOCC4)nc3)c2c1` [P-0099, (2-Morpholin-4-yl-ethyl)-[5-(1H-pyrrolo[2,3-b]pyridin-3-ylmethyl)-pyridin-2-yl]-amine]: the IC50 is < 1000 nM.

`O=C(Nc1ccc(Cc2c[nH]c3ncccc23)cn1)c1ccc(Cl)c(Cl)c1` [P-0100, 3,4-Dichloro-N-[5-(1H-pyrrolo[2,3-b]pyridin-3-ylmethyl)-pyridin-2-yl]-benzamide]: the concentration for half-maximal inhibition (IC50) was < 1000 nM.

On to `O=C(Nc1ccc(Cc2c[nH]c3ncccc23)cn1)c1ccc(F)cc1Cl` [P-0101, 2-Chloro-4-fluoro-N-[5-(1H-pyrrolo[2,3-b]pyridin-3-ylmethyl)-pyridin-2-yl]-benzamide], for which the IC50 was < 1000 nM.

Consider `Cc1cc(C(=O)Nc2ccc(Cc3c[nH]c4ncccc34)cn2)n(C)n1` [P-0102, 2,5-Dimethyl-2H-pyrazole-3-carboxylic acid [5-(1H-pyrrolo[2,3-b]pyridin-3-ylmethyl)-pyridin-2-yl]-amide], for which the IC50 is < 1000 nM.

With `O=C(Nc1ccc(Cc2c[nH]c3ncccc23)cn1)c1cccs1` [P-0103, Thiophene-2-carboxylic acid [5-(1H-pyrrolo[2,3-b]pyridin-3-ylmethyl)-pyridin-2-yl]-amide], the 50% inhibitory concentration (IC50) was < 1000 nM.

On to `COc1cc(C(=O)Nc2ccc(Cc3c[nH]c4ncccc34)cn2)ccn1` [P-0104, 2-Methoxy-N-[5-(1H-pyrrolo[2,3-b]pyridin-3-ylmethyl)-pyridin-2-yl]-isonicotinamide], for which the IC50 was < 1000 nM.

As to `O=C(Nc1ccc(Cc2c[nH]c3ncccc23)cn1)c1ccncc1` [P-0105, N-[5-(1H-Pyrrolo[2,3-b]pyridin-3-ylmethyl)-pyridin-2-yl]-isonicotinamide], the IC50 is < 1000 nM.

`O=C(Nc1ccc(Cc2c[nH]c3ncccc23)cn1)c1ccccn1` [P-0107, Pyridine-2-carboxylic acid [5-(1H-pyrrolo[2,3-b]pyridin-3-ylmethyl)-pyridin-2-yl]-amide]: the IC50 is < 1000 nM.

For the compound `Cc1ccc(C(=O)Nc2ccc(Cc3c[nH]c4ncccc34)cn2)cn1` [P-0108, 6-Methyl-N-[5-(1H-pyrrolo[2,3-b]pyridin-3-ylmethyl)-pyridin-2-yl]-nicotinamide], the IC50 is < 1000 nM.

Take `Cc1cc(C(=O)Nc2ccc(Cc3c[nH]c4ncccc34)cn2)ccc1F` [P-0109, 4-Fluoro-3-methyl-N-[5-(1H-pyrrolo[2,3-b]pyridin-3-ylmethyl)-pyridin-2-yl]-benzamide]: the IC50 was < 1000 nM.

In the case of `O=C(Nc1ccc(Cc2c[nH]c3ncccc23)cn1)c1cccc(Cl)c1` [P-0111, 3-chloro-N-[5-(1H-pyrrolo[2,3-b]pyridin-3-ylmethyl)-pyridin-2-yl]-benzamide], the IC50 was < 1000 nM.

In the case of `O=C(Nc1ccc(Cc2c[nH]c3ncccc23)cn1)c1ccc(F)c(C(F)(F)F)c1` [P-0112, 4-Fluoro-N-[5-(1H-pyrrolo[2,3-b]pyridin-3-ylmethyl)-pyridin-2-yl]-3-trifluoromethyl-benzamide], the IC50 was < 1000 nM.

For `O=C(Nc1ccc(Cc2c[nH]c3ncccc23)cn1)c1cccc(OC(F)(F)F)c1` [P-0113, N-[5-(1H-Pyrrolo[2,3-b]pyridin-3-ylmethyl)-pyridin-2-yl]-3-trifluoromethoxy-benzamide], the 50% inhibitory concentration (IC50) was < 1000 nM.

As for `O=C(Nc1ccc(Cc2c[nH]c3ncccc23)cn1)c1cccc(C(F)(F)F)c1` [P-0114, N-[5-(1H-Pyrrolo[2,3-b]pyridin-3-ylmethyl)-pyridin-2-yl]-3-trifluoromethyl-benzamide], the IC50 is < 1000 nM.

As for `O=C(Nc1ccc(Cc2c[nH]c3ncccc23)cn1)c1ccc(F)c(Cl)c1` [P-0115, 3-Chloro-4-fluoro-N-[5-(1H-pyrrolo[2,3-b]pyridin-3-ylmethyl)-pyridin-2-yl]-benzamide], the IC50 is < 1000 nM.

With `O=C(Nc1ccc(Cc2c[nH]c3ncccc23)cn1)c1ccc(F)c(F)c1` [P-0116, 3,4-Difluoro-N-[5-(1H-pyrrolo[2,3-b]pyridin-3-ylmethyl)-pyridin-2-yl]-benzamide], the IC50 is < 1000 nM.

Take `Cc1ccc(F)cc1C(=O)Nc1ccc(Cc2c[nH]c3ncccc23)cn1` [P-0118, 5-Fluoro-2-methyl-N-[5-(1H-pyrrolo[2,3-b]pyridin-3-ylmethyl)-pyridin-2-yl]-benzamide]: the IC50 was < 1000 nM.

Regarding `COc1cccc(C(=O)Nc2ccc(Cc3c[nH]c4ncccc34)cn2)c1` [P-0120, 3-Methoxy-N-[5-(1H-pyrrolo[2,3-b]pyridin-3-ylmethyl)-pyridin-2-yl]-benzamide], the IC50 was < 1000 nM.

Consider `O=C(Nc1ccc(Cc2c[nH]c3ncccc23)cn1)c1cccc(F)c1` [P-0121, 3-Fluoro-N-[5-(1H-pyrrolo[2,3-b]pyridin-3-ylmethyl)-pyridin-2-yl]-benzamide], for which the IC50 was < 1000 nM.

In the case of `Cc1cccc(C(=O)Nc2ccc(Cc3c[nH]c4ncccc34)cn2)c1` [P-0122, 3-Methyl-N-[5-(1H-pyrrolo[2,3-b]pyridin-3-ylmethyl)-pyridin-2-yl]-benzamide], the concentration for half-maximal inhibition (IC50) is < 1000 nM.
